ChEMBL document CHEMBL1909046, “DrugMatrix in vitro pharmacology data”
*1 amine or outer side, *2 acyl side, *3 side chain or, on linkers, in order; H or OH if unused. Where a SMILES comes first, the peptide text is derived from it. Bridges are numbered along the chain shown (N, C = ends). Roman numbers before positions name the chains, in order. [ ]: non-standard residue; d: D form. Actinocin(1to9) = Cc1c2oc3c(C)ccc(C(=O)[*:2])c3nc-2c(C(=O)[*:1])c(N)c1=O; NMeV = CN[C@H](C(=O)O)C(C)C; Sar = CNCC(=O)O

What was measured:
Interstitial collagenase = target: T1, Interstitial collagenase (Homo sapiens, UniProt P03956); test: biochemical; assay type: tissue-based, Rheumatoid synovial fibroblasts;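 also: MMP-1 enzyme inhibition assay using a peptide substrate; in other assays of this panel Not Active means under 50% inhibition at 10 µM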
T1 sequence (P03956 whole entry): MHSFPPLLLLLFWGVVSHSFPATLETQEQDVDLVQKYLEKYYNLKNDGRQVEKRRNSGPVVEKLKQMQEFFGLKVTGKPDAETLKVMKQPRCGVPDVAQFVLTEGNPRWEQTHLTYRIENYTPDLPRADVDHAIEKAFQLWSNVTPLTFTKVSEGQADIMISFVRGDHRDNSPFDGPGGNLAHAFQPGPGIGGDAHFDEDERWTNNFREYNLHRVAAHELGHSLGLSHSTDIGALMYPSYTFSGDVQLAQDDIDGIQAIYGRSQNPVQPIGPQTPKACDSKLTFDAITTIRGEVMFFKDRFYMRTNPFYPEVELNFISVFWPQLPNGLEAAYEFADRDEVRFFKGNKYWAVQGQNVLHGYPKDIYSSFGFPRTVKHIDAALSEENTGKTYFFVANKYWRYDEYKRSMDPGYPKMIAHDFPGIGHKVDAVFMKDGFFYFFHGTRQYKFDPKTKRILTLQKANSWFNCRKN

Calcitonin receptor = target: T2, Calcitonin receptor (Homo sapiens, UniProt P30988); assay type: cell membranes, Membrane; settings: t47d; also: in other assays of this panel Not Active means under 50% inhibition at 10 µM
T2 sequence (P30988 whole entry): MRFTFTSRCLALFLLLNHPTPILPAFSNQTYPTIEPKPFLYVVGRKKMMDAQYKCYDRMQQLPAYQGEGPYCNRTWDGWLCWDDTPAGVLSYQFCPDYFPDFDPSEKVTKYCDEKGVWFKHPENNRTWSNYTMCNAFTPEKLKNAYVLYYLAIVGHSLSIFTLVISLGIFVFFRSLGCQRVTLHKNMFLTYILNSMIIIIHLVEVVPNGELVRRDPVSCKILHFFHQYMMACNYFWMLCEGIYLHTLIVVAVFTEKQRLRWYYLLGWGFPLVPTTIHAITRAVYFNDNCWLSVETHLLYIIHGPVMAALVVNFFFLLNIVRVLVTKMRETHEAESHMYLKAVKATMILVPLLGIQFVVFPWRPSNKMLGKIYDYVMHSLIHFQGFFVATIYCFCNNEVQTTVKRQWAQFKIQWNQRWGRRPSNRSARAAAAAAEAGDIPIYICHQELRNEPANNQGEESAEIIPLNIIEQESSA

[1] = DRUGMATRIX: Calcium Channel Type L, Phenylalkylamine radioligand binding (ligand: [3H] (-)-Desmethoxyverapamil (D-888)); assay type: cell membranes, Rattus norvegicus, Wistar, Brain, Membrane; settings: Not Active = under 50% inhibition at 10 µM
[2] = DRUGMATRIX: Calcium Channel Type L, Benzothiazepine radioligand binding (ligand: [3H] Diltiazem); assay type: cell membranes, Rattus norvegicus, Wistar, Brain, Membrane; settings: Not Active = under 50% inhibition at 10 µM
[3] = target: T3, Alpha-2C adrenergic receptor (Homo sapiens, UniProt P18825); test: DRUGMATRIX: Adrenergic Alpha-2C radioligand binding (ligand: [3H] MK-912); assay type: cell membranes, Sf9, Membrane
T3 sequence (P18825 whole entry): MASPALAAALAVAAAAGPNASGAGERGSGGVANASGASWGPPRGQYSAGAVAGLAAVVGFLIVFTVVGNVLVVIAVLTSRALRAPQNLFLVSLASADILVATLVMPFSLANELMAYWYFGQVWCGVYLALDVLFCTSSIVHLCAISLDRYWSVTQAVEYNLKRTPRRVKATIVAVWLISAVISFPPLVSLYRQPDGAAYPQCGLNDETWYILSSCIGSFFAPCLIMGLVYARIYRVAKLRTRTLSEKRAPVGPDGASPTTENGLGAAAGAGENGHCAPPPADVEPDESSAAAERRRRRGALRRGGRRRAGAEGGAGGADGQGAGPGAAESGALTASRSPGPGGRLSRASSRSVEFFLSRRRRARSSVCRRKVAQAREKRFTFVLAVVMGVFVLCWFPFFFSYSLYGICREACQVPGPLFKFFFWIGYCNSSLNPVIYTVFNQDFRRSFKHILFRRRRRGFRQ

Compound | IC50 (Interstitial collagenase) | IC50 (Calcitonin receptor) | IC50 [1] | Ki [1] | IC50 [2] | Ki [2] | IC50 ([3]; sf9) | IC50 (Interstitial collagenase; read-out: IC50) | IC50 ([1]; read-out: IC50) | Ki ([1]; read-out: Ki) | IC50 ([2]; read-out: IC50) | Ki ([2]; read-out: Ki) | IC50 [3] | Ki ([3]; read-out: Ki) | IC50 ([3]; read-out: IC50) | Ki (Interstitial collagenase) | Ki (Calcitonin receptor) | Ki ([3]; sf9)
COCCc1ccc(OCC(O)CNC(C)C)cc1 (centres undefined) [METOPROLOL] | Not Active | Not Active | Not Active | Not Active | Not Active | Not Active | Not Active |  |  |  |  |  |  |  |  |  |  | 
COc1cc2nc(N3CCN(C(=O)C4COc5ccccc5O4)CC3)nc(N)c2cc1OC (centres undefined) [DOXAZOSIN] |  | Not Active | Not Active | Not Active | Not Active | Not Active | Not Active | 5750 nM |  |  |  |  |  |  |  |  |  | 
NCCCCCC(=O)O [AMINOCAPROIC ACID] | Not Active | Not Active | Not Active | Not Active | Not Active | Not Active | Not Active |  |  |  |  |  |  |  |  |  |  | 
CC(C)(C)NCC(O)c1cc(Cl)c(N)c(Cl)c1 (centres undefined) [CLENBUTEROL] | Not Active | Not Active | Not Active | Not Active | Not Active | Not Active | Not Active |  |  |  |  |  |  |  |  |  |  | 
CCCN1C[C@H](CSC)C[C@@H]2c3cccc4[nH]cc(c34)C[C@H]21 [PERGOLIDE] | Not Active | Not Active |  |  |  |  |  |  | 913 nM | 887 nM | 3300 nM | 2930 nM | 1410 nM | 205 nM |  |  |  | 
CN(C)C(=O)Oc1cc(OC(=O)N(C)C)cc(C(O)CNC(C)(C)C)c1 (centres undefined) [BAMBUTEROL] | Not Active | Not Active | Not Active | Not Active | Not Active | Not Active | Not Active |  |  |  |  |  |  |  |  |  |  | 
c1ccc(Nc2ccc(Nc3ccccc3)cc2)cc1 | Not Active | Not Active | Not Active | Not Active | Not Active | Not Active | Not Active |  |  |  |  |  |  |  |  |  |  | 
Cc1cc(C(C#N)c2ccc(Cl)cc2)c(Cl)cc1NC(=O)c1cc(I)cc(I)c1O (centres undefined) [CLOSANTEL] | Not Active | Not Active | Not Active | Not Active | Not Active | Not Active |  |  |  |  |  |  |  | 1000 nM | 7100 nM |  |  | 
Cc1ccc2cc3c(ccc4ccccc43)c3c2c1CC3 [3-METHYLCHOLANTHRENE] | Not Active | Not Active | Not Active | Not Active | Not Active | Not Active | Not Active |  |  |  |  |  |  |  |  |  |  | 
Nc1nc2c(ncn2CCC(CO)CO)c(=O)[nH]1 [PENCICLOVIR] | Not Active | Not Active | Not Active | Not Active | Not Active | Not Active | Not Active |  |  |  |  |  |  |  |  |  |  | 
CC1Cc2ccccc2N1NC(=O)c1ccc(Cl)c(S(N)(=O)=O)c1 (centres undefined) [INDAPAMIDE] | Not Active | Not Active | Not Active | Not Active | Not Active | Not Active | Not Active |  |  |  |  |  |  |  |  |  |  | 
Cc1ccc(-c2cc(C(F)(F)F)nn2-c2ccc(S(N)(=O)=O)cc2)cc1 [CELECOXIB] | Not Active | Not Active | Not Active | Not Active | Not Active | Not Active | Not Active |  |  |  |  |  |  |  |  |  |  | 
CCCCc1nc(Cl)c(CO)n1Cc1ccc(-c2ccccc2-c2nnn[nH]2)cc1 [LOSARTAN] | Not Active | Not Active | Not Active | Not Active | Not Active | Not Active | Not Active |  |  |  |  |  |  |  |  |  |  | 
CC(NC(C)(C)C)C(=O)c1cccc(Cl)c1 (centres undefined) [BUPROPION] | Not Active | Not Active | Not Active | Not Active | Not Active | Not Active | Not Active |  |  |  |  |  |  |  |  |  |  | 
COc1cc2c3cc1Oc1cc(ccc1O)C[C@@H]1c4c(cc(OC)c(O)c4Oc4ccc(cc4)C[C@@H]3N(C)CC2)CC[N+]1(C)C.[Cl-] | Not Active | Not Active | Not Active | Not Active | Not Active | Not Active | Not Active |  |  |  |  |  |  |  |  |  |  | 
CCC(C)n1ncn(-c2ccc(N3CCN(c4ccc(OCC5COC(Cn6cncn6)(c6ccc(Cl)cc6Cl)O5)cc4)CC3)cc2)c1=O (centres undefined) [ITRACONAZOLE] | Not Active | Not Active | Not Active | Not Active | Not Active | Not Active | Not Active |  |  |  |  |  |  |  |  |  |  | 
CADMIUM ACETATE | Not Active | Not Active | Not Active | Not Active | Not Active | Not Active | Not Active |  |  |  |  |  |  |  |  | Not Active | Not Active | Not Active
C[C@H]1O[C@@H](O[C@H]2[C@@H](O)C[C@H](O[C@H]3[C@@H](O)C[C@H](O[C@H]4CC[C@@]5(C)[C@H](CC[C@@H]6[C@@H]5C[C@@H](O)[C@]5(C)[C@@H](C7=CC(=O)OC7)CC[C@]65O)C4)O[C@@H]3C)O[C@@H]2C)C[C@H](O)[C@@H]1O [DIGOXIN] | Not Active | Not Active | Not Active | Not Active | Not Active | Not Active | Not Active |  |  |  |  |  |  |  |  |  |  | 
Cc1c2oc3c(C)ccc(C(=O)N[C@@H]4C(=O)N[C@H](C(C)C)C(=O)N5CCC[C@H]5C(=O)N(C)CC(=O)N(C)[C@@H](C(C)C)C(=O)O[C@@H]4C)c3nc-2c(C(=O)N[C@@H]2C(=O)N[C@H](C(C)C)C(=O)N3CCC[C@H]3C(=O)N(C)CC(=O)N(C)[C@@H](C(C)C)C(=O)O[C@@H]2C)c(N)c1=O [DACTINOMYCIN] (I: T[dV]P[Sar][NMeV] / II: T[dV]P[Sar][NMeV]; ester I:1-I:C, II:1-II:C; linker I:N-II:N via Actinocin(1to9)) | Not Active | Not Active | Not Active | Not Active | Not Active | Not Active | Not Active |  |  |  |  |  |  |  |  |  |  | 
C=C(C)C1(O)OC(=O)C=C1OC (centres undefined) [PENICILLIC ACID] | Not Active | Not Active | Not Active | Not Active | Not Active | Not Active | Not Active |  |  |  |  |  |  |  |  |  |  | 
CN(Cc1ccc(C(C)(C)C)cc1)Cc1cccc2ccccc12 [BUTENAFINE] | Not Active | Not Active | Not Active | Not Active | Not Active | Not Active | Not Active |  |  |  |  |  |  |  |  |  |  | 
NC(=O)N1c2ccccc2CCc2ccccc21 | Not Active | Not Active | Not Active | Not Active | Not Active | Not Active | Not Active |  |  |  |  |  |  |  |  |  |  | 
Cc1onc(-c2ccccc2Cl)c1C(=O)N[C@@H]1C(=O)N2[C@@H]1SC(C)(C)[C@@H]2C(=O)O [CLOXACILLIN] | Not Active | Not Active | Not Active | Not Active | Not Active | Not Active | Not Active |  |  |  |  |  |  |  |  |  |  | 
COc1ccc(C[C@H]2NC[C@H](O)[C@H]2OC(C)=O)cc1 [ANISOMYCIN] | Not Active | Not Active | Not Active | Not Active | Not Active | Not Active | Not Active |  |  |  |  |  |  |  |  | Not Active | Not Active | Not Active
Cc1ccc(N(CC2=NCCN2)c2cccc(O)c2)cc1 [PHENTOLAMINE] | Not Active | Not Active |  |  | Not Active | Not Active |  |  | 746 nM | 725 nM |  |  |  |  |  |  |  | 
CN(C)CCCN1c2ccccc2Sc2ccc(Cl)cc21 [CHLORPROMAZINE] | Not Active | Not Active |  |  |  |  |  |  | 1530 nM | 1480 nM | 3210 nM | 2860 nM |  |  |  |  |  | 
CCOC(=O)C1=C(COCCN)NC(C)=C(C(=O)OC)C1c1ccccc1Cl (centres undefined) [AMLODIPINE] | Not Active | Not Active | Not Active | Not Active |  |  |  |  |  |  | 101 nM | 90 nM |  |  |  |  |  | 
